Experiment [1] deals with affinity-purified Ins(1,4,5)P3-specific antibodies (from IP3 -C5 -BSA induced antiserum). As to the kind of experiment: Competitive ELISA with affinity-purified Ins(1,4,5)P3-specific antibodies and inositol phosphates. It is filed as binding, New Zealand White rabbit. Here is the method:
(§1) The presence of anti-Ins(1,4,5)P3 antibodies in rabbit serum was detected by an ELISA. Ins(1,4,5)P3 (hapten) was covalently attached to microtiter plates through a C-6 linker by adding 6-O-(ω-Aminohexyl)-D-myo-inositol 1,4,5-triphosphate (1) (1.25 μg in 0.1 ml of phosphate buffered saline (PBS) per well) to maleic anhydride-activated polystyrene plates (Pierce). This anhydride-activated plate allows direct coupling of amine-bearing molecules to the well surface, (Pierce Chemical Co. Instruction 15110X (1992) REACTI-BIND™ Maleic Anhydride Activated Polystyrene Plates), and obviates the need for a carrier protein to immobilize haptens. The plate was incubated at room temperature overnight, and each well was blocked by adding 0.12 ml of SUPERBLOCK ™ blocking solution in PBS (Pierce). After 10 minutes at room temperature, the plate was washed twice with 0.05% Tween-20 in 10 mM Tris/HCl containing 0.85% NaCl, pH 7.2 (TBS), followed by TBS buffer twice. Rabbit antiserum (antibodies) diluted in TBS buffer containing 0.1% gelatin was added (95 μl per well). The plate was incubated at 37° C. for 2 hours, and washed as stated above. Specific antibody binding was assessed by adding goat anti-rabbit IgG-HRP conjugate (1/200 dilution in TBS containing 0.1% gelatin; 90 μl per well), and the plate was incubated for another 2 hours at 37° C. After the plate was washed again, the peroxidase substrate solution (90 μl per well) containing 2 mM 2,2'-azinobis(3-ethyl-benzthiazoline-6-sulfonic acid), 2.5 mM hydrogen peroxide, and 50 mM citrate buffer, with a final pH of 5.0, was added. The reaction was incubated at room temperature for 15-20 minutes, and terminated by adding 20 μl of 5% SDS to each well. The absorbance at 415 nm was measured by a microtiter plate reader. Rabbit serum taken before immunization was used as a control in all the assays, from which the absorbance values obtained served as a blank for the correction of experimental data.
The antiserum (5.2 ml) was applied to an ECONO-PAC ™ protein A cartridge (5 ml, Bio-Rad) equilibrated with 100 mM Tris/HCl, pH 8.0. The column was washed with, in sequence, 20 ml of the equilibrating buffer, and 25 ml of 10 mM Tris/HCl, pH 8.0. The bound IgG was eluted with 25 ml of 100 mM glycine buffer, pH 3.0, at a flow rate of 0.5 ml/min. Fractions of 1.7 ml were collected in tubes containing 100 μl of 1M Tris/HCl, pH 8.0.
The dialyzed solution from step 1 was applied to a Ins(1,4,5)IP3 -agarose column (5.8 ml bed volume) equilibrated with 10 mM Tris/HCl, pH 7.5. The column was washed with the equilibration buffer followed by 500 mM NaCl in the same buffer. The absorbed proteins were eluted with, in sequence, 50 ml of 100 mM glycine buffer, pH 3.5, 10 ml of 10 mM Tris/HCl, pH 8.8, and 50 ml of 100 mM NaHCO3 /Na2 CO3 buffer, pH 10.5 Fractions of 1.7 ml were collected. For the eluate with the glycine buffer and with the NaHCO3 /Na2 /CO3 buffer, fractions were collected in tubes containing 100 μl of 1M Tris/HCl, pH 8.0, and 700 μl of 1M Tris/HCl, pH 7.6, respectively.
Referring to FIG. 2, the displacement curves were generated from competitive ELISA experiments between immobilized (1,4,5)IP3 and various inositol phosphates shown in the insert. The antibodies were preincubated with individual competitors at various concentrations for 30 minutes at room temperature before added to the (1,4,5)IP3 immobilized EIA plates. The assay for the competitive binding was the same as that described for the ELISA under "Experimental Procedures". Percentage total specific binding is expressed by B/Bo, where B=absorbance with competitor and Bo =absorbance without competitor. Each data point represents the means of three determinations. For clarity, the standard deviations were not shown.

Experiment [2] concerns Ins(1,4,5)P3 receptors. Particulars: Wilcox et al. 1993, cited from earlier work.
Experiment [3] has as its system IP3 -C5 -BSA induced antibodies (anti-Ins(1,4,5)P3 antiserum). Nature of the experiment: Competitive ELISA: immobilized Ins(1,4,5)P3 vs competitor, IP3-C5-BSA induced antiserum. It is filed as binding, New Zealand White rabbit. Here is the method: (§2) New Zealand White female rabbits were immunized with 1 mg of the IP3 -BSA conjugate in 0.5 ml of saline emulsified with an equal volume of Freund's complete adjuvant by five to six subcutaneous injections at the back and both flanks. Booster injections were given with the same amounts of the IP3 -BSA prepared with incomplete Freund's adjuvant at monthly intervals. After the second boost, the animals were bled from the ear vein 2 weeks after each booster injection. The antisera thus prepared were stored at -20° C. until used.
as §1
(§3) The avidity and specificity of these antisera were examined by competitive ELISA experiments between immobilized Ins(1,4,5)P3 and various inositol phosphates.
(§4) Table 1 Avidity of antisera toward various inositol phosphates and
(§5) PIP2. The avidity is expressed as the concentrations at halfmaximal
(§6) absorbance (B/Bo = 0.5) in the competitive ELISA experiments.
A general note: An ELISA detects its analyte on a solid surface through an enzyme-linked reagent.

In experiment [4] the test system is IP3 -C6 -NC5 -BSA induced antibodies (anti-Ins(1,4,5)P3 antiserum). Nature of the experiment: Competitive ELISA: immobilized Ins(1,4,5)P3 vs competitor, IP3-C6NC5-BSA induced antiserum. The format is binding, New Zealand White rabbit. Here is the method:
as §2, §1, §3, §4, §5, §6

As to `O=P(O)(O)O[C@H]1[C@H](O)[C@@H](OP(=O)(O)O)[C@H](OP(=O)(O)O)[C@@H](OP(=O)(O)O)[C@H]1O` [Ins(1,3,4,5)P4], the IC50 in experiment [1] is 730 nM; in experiment [2] (read-out: IC50 for displacing [3H]Ins(1,4,5)P3 binding from Ins(1,4,5)P3 receptors) it was 762 nM; in experiment [3] (IP3-C5-BSA induced antibodies, competitive ELISA, read-out: [Competitor] (M) at half maximal absorbance (B/Bo = 0.5) or IC50), 7.1e-08 M; in experiment [4] (IP3-C6-NC5-BSA induced antibodies, competitive ELISA, read-out: [Competitor] (M) at half maximal absorbance (B/Bo = 0.5) or IC50), 2e-07 M. For the same molecule, the “differential affinity, ratio of IC50 values Ins(1,3,4,5)P4 / Ins(1,4,5)P3” value in experiment [1] stood at 60 fold. Further, in experiment [2], the “weaker than Ins(1,4,5)P3 at displacing specific [3H]Ins(1,4,5)P3 binding” value is given as “about 40 fold”. The “binding compared with IP3-C6NC5-BSA induced antiserum” value in experiment [3] (IP3-C5-BSA induced antibodies) is “stronger binding”. In addition, the entries for the “ratio of IC50[Ins(1,3,4,5)P4] to IC50[Ins(1,4,5)P3]” value in experiment [3] (antiserum against IP3-C5-BSA) and in experiment [4] (antiserum against IP3-C6NC5-BSA) were 2.3 and 2.2, respectively. The “differential affinity, ratio of IC50 values before purification” value in experiment [3] (antiserum before affinity purification) amounted to 2 fold. Further, the “affinity relative to Ins(1,4,5)P3” value in experiment [4] (both antiserum preparations) is recorded as “one-third of the affinity”.

These data come from US5798447A, “Antibodies specific for D-myo-inositol 1, 4, 5-trisphosphate and the enzyme-linked immunosorbent assay of D-myo-inositol 1, 4, 5-trisphosphate” (The Board of Governors for Higher Education State of Rhode …, priority 1996, dated 1998).
